What was measured:
[1] = biological target: T1, glutamate-gated chloride channel receptor α (avr-14b) (GluClR), homomeric, G36'A mutant (Haemonchus contortus, UniProt O46124, G329A); experiment: outside-out patch single-channel recording; direct activation by […] IVM; format: cell-based
T1 construct: gene gbr-2; homomeric avr-14b subunit expressed in HEK AD293 cells

[2] = biological target: T2, glutamate-gated chloride channel receptor α (avr-14b) (GluClR), homomeric (Haemonchus contortus, UniProt O46124); experiment: outside-out patch single-channel recording; direct activation by […] IVM, and potentiation of […] glutamate; format: cell-based
T2 construct: gene gbr-2; homomeric avr-14b subunit expressed in HEK AD293 cells
T2 sequence (O46124 entry or part of it): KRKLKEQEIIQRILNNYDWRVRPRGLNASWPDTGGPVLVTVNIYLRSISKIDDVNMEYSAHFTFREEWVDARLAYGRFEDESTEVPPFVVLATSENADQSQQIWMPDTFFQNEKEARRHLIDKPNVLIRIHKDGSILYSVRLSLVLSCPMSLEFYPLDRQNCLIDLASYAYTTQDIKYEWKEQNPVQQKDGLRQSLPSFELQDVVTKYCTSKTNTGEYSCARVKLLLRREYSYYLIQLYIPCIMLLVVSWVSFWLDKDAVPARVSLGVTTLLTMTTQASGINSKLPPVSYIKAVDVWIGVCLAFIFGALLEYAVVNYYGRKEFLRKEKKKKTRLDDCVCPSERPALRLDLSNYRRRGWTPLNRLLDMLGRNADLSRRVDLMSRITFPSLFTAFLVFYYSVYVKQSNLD

T1 sequence (O46124 31-438 G329A): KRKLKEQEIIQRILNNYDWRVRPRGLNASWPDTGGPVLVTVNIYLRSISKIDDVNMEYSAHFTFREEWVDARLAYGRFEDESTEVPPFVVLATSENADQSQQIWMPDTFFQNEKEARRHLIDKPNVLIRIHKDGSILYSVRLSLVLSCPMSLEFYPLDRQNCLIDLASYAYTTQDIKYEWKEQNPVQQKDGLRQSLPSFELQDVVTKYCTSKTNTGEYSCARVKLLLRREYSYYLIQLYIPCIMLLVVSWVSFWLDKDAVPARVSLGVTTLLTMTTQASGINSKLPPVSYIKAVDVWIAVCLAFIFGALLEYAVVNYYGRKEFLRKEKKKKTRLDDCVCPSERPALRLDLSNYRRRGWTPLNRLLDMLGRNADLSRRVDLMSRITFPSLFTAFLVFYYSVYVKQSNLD

## CC[C@H](C)[C@H]1O[C@]2(CC[C@@H]1C)C[C@@H]1C[C@@H](C/C=C(\C)[C@@H](O[C@H]3C[C@H](OC)[C@@H](O[C@H]4C[C@H](OC)[C@@H](O)[C@H](C)O4)[C@H](C)O3)[C@@H](C)/C=C/C=C3\CO[C@@H]4[C@H](O)C(C)=C[C@@H](C(=O)O1)[C@]34O)O2 [Ivermectin]
[1]
  outside-out patch single-channel recording; direct activation by 5 nM IVM: 5 nM
[2]
  outside-out patch single-channel recording; direct activation by 5 nM IVM, and p: 5 nM

— PMC5638611, “Effects of glutamate and ivermectin on single glutamate-gated chloride channels of the parasitic nematode H. contortus” (PLoS Pathogens, 2017)
